Measurements: patent publication US20250236607A1, “CYCLIN-DEPENDENT KINASE 9 (CDK9) DEGRADERS AND METHODS OF USING THEREOF” (OHIO STATE INNOVATION FOUNDATION, priority 2022, published 2025)
≈ marks a conversion by molar mass, not a printed value. Where “and” joins values, the source holds several entries; their conditions need not be identical. Equal values may be shown once. Read-outs that look alike come from different tables or passages of the source.

Key:
[1] = Chromatographic log D determination (log k′80); assay type: physicochemical; conditions: chromatographic log D, PLRP-S column, pH 7.72
Procedure: Chromatographic Log D Determination. Test samples were prepared from 10 mM stock solutions in DMSO, to make 122 μM solutions in acetonitrile. Retention times were determined on a Shimadzu High Performance Liquid Chromatography (HPLC) system with Agilent PLRP-S column, 100 Å, 5 um particle size, 50×4.6 mm (part no.: PL1512-1500) with 1 mL/min flow rate. A 65 mM aqueous solution of ammonium acetate was prepared in water and diluted with acetonitrile to give 0.1% ammonium acetate 20:80 acetonitrile solution with pH 7.72. Eluents were detected with UV spectrophotometry at 337 nm. As a standard set, the retention times of β-estradiol, nifedipine, quinoline, phenol and 2-nitrophenol were determined (log k′80) and the dead time was extrapolated based on the reported log k′80 values originally reported by Caron et. al (log k′80*). The average value of the dead time for the standard set was 0.3001 minutes. Therefore, for consistency, 0.3 minutes was used as the dead time for all test samples. Experiments were performed in triplicate with a maximum percent standard deviation of 6.85%.

[2] = target: T1, CDK9 (Homo sapiens, UniProt P50750+Q96SW2); assay: CDK9 degradation potency (DC50) of VIP152-based degraders; assay type: cell-based; conditions: VIP152-based series
T1 construct: endogenous in cells
Excerpt: (§1) Through amide coupling using I-ethyl-3-carbodiimide hydrochloride (EDC.HCl), the alkynyl derivatives of 4.16, 4.29 and 4.30 were synthesized. Using these VIP152-derivatives, degraders 4.31, 4.33 and 4.34 were synthesized using click chemistry. Degrader 4.32 was also synthesized using amide coupling conditions with (1-[Bis([…])methylene]-1H-1,2,3-triazolo[4,5-b]pyridinium 3-oxide hexafluorophosphate (HATU) and the carboxylic acid 4.28. Scheme 7 illustrates the synthesis of this initial series. The series was evaluated for cytotoxicity against MOLM13 cells (IC50) and for their CDK9 degradation potency (DC50). The results are provided in Table 3.

[3] = tested on: MOLM13 cells; assay: Cytotoxicity against MOLM13 cells; assay type: cell-based; conditions: MOLM13 cells, read-out: IC50
Excerpt: as §1

[4] = Kinetic solubility assay; conditions: for solubility at 1.5 h: Solubility (μM); for solubility at 1.5 h / Solubility: kinetic solubility, PBS pH 7.4
[5] = tested on: MV411 cells; assay: MTS cytotoxicity assay against MV411 cells; assay type: cell-based; conditions: Homo sapiens, MV4-11
Procedure: The obtained compounds were tested in biological experiments to measure their potency in inhibiting the growth of AML cells and in their degradation of CDK9. These measurements are reported as half-maximum growth inhibitory and half-maximum degradation concentrations, IC50s and DC50s, respectively. Maximum percent degradation (Dmax) values were also obtained during the CDK9 degradation assessments. The common MTS assay was used to acquire the IC50 values, while the DC50 values were obtained using an automated western blot experiment. These values are presented in Table 2, along with pIC50 (log(nM IC50)) to more accurately reflect the differences/lack thereof in in vitro cytotoxicity. The notation “N:N*” represents the number of linker atoms on each side of the rigid triazole ring for a given degrader. Predicted log D values, calculated using the ChemAxon […], are also provided for each degrader. To characterize the physicochemical properties of the new degrader series, two additional assays were performed: a kinetic aqueous solubility assay and the chromatographic log D experiment described earlier. Aqueous solubility is shown in μM while experimentally determined log D is shown as log k′80. Details regarding the execution of each experiment are provided below.

[6] = Homo sapiens, MOLM-13, cytotoxicity
[7] = phosphate buffered saline, pH 7.4, aqueous buffer, kinetic from dmso stock

T1 sequence (P50750 whole entry): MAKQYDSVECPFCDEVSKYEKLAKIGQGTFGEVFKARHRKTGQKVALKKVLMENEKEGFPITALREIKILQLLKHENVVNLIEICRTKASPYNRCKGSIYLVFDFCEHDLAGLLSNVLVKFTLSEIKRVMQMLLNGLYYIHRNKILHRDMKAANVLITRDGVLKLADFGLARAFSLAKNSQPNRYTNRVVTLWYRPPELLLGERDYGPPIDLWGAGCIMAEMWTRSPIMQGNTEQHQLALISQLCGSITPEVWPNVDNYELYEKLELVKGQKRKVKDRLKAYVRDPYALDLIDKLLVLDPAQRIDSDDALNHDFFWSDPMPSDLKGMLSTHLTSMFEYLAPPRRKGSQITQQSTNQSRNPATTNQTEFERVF
T1 sequence (O60563 whole entry partner): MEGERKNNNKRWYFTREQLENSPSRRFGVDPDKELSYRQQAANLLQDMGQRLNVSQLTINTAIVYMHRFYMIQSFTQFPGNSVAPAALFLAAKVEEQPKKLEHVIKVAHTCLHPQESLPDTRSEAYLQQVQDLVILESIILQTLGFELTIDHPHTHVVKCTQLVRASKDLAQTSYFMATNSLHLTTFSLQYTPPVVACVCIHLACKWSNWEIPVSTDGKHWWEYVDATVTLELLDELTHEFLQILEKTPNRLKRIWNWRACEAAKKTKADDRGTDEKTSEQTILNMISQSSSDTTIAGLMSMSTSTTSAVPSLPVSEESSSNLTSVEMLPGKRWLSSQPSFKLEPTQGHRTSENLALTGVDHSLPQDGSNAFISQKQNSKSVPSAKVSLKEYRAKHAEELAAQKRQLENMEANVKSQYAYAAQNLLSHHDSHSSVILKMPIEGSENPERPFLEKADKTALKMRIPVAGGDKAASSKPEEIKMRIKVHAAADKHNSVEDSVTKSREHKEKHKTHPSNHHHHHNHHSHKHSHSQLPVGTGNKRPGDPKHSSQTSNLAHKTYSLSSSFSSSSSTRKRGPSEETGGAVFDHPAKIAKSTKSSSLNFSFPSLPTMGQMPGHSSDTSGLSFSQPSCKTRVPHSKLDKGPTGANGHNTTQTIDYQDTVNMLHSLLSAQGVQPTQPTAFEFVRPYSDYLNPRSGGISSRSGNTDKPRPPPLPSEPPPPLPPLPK
T1 sequence (Q96SW2 whole entry): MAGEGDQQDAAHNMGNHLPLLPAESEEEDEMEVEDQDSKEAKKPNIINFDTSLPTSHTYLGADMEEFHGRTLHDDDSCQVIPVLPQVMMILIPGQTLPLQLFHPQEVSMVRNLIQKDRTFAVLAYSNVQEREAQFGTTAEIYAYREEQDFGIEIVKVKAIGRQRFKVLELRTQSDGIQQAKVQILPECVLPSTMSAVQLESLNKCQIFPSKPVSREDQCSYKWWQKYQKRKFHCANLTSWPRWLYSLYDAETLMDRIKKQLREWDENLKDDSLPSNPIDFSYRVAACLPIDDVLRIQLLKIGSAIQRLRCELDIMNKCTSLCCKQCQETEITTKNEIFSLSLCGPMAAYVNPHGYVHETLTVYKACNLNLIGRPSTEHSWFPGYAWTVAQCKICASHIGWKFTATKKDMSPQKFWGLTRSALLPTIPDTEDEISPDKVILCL
T1 sequence (Q16531 whole entry partner): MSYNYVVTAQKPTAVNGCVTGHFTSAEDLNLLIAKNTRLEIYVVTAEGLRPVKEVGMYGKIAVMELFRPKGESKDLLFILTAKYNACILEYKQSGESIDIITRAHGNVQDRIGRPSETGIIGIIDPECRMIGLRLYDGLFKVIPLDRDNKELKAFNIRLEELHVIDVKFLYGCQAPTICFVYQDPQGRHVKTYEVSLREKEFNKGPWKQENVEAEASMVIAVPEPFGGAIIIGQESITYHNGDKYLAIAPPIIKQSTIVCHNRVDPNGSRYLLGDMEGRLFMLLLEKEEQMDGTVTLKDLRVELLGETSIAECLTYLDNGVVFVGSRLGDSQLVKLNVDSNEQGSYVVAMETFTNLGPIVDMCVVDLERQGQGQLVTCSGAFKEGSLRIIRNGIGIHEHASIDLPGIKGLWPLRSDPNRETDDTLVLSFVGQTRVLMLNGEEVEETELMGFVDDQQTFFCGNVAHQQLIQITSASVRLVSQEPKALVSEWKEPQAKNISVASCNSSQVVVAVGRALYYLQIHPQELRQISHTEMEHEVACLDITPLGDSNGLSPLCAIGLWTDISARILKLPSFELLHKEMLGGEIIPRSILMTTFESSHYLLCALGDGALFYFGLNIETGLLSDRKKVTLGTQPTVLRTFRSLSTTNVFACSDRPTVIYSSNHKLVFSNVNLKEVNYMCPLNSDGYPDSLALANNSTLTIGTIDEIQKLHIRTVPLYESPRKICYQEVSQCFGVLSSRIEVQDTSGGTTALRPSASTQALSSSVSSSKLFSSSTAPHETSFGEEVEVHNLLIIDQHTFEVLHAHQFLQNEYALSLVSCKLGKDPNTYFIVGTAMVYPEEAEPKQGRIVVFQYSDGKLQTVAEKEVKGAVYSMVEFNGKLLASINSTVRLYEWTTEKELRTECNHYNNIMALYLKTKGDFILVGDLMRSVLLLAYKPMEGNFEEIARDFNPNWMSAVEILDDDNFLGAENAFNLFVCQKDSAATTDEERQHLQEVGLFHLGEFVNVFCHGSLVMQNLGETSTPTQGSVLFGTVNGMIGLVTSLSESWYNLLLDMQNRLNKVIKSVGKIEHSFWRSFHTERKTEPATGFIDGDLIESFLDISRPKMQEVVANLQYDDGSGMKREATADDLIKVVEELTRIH

SMILES	logk′80 [1]	DC50 [2] [nM]	solubility at 1.5 h [4, 7] [µM]	IC50 [3, 6] [nM]	also measured
COc1cc(F)ccc1-c1cc(Nc2cc(CS(C)(=O)=NC(=O)CCc3cn(CCCOc4cccc5c4C(=O)N(C4CCC(=O)NC4=O)C5=O)nn3)ccn2)ncc1F (stereo not shown) [Compound 4.33, 3-(1-(3-((2-(2,6-dioxopiperidin-3-yl)-1,3-dioxoisoindolin-4-yl)oxy)propyl)-1H-1,2,3-triazol-4-yl)-N-(((2-((5-fluoro-4-(4-fluoro-2-methoxyphenyl)pyridin-2-yl)amino)pyridin-4-yl)methyl)(methyl)(oxo)-16-sulfaneylidene)propenamide]	0.15	170	–	190	–
COc1cc(F)ccc1-c1cc(Nc2cc(CS(C)(=O)=NC(=O)C3CCCN(Cc4cn(CC5CCN(c6cccc7c6C(=O)N(C6CCC(=O)NC6=O)C7=O)CC5)nn4)C3)ccn2)ncc1F (stereo not shown) [Compound 4.77, 1˜ {[1-({1-[2-(2,6-dioxopiperidin-3-yl)-1,3-dioxo-2,3-dihydro-1H-isoindol-4-yl]piperidin-4-yl}methyl)-1H-1,2,3-triazol-4-yl]methyl}-N-{[(2-{[5-fluoro-4-(4-fluoro-2-methoxyphenyl)pyridin-2-yl]amino}pyridin-4-yl)methyl](methyl)oxo-λ^6-sulfanylidene}piperidine-3-carboxamide]	–	260	8.9 (≈ 8.46 µg/mL)	640	–
O=C(NC1CCNCC1)c1n[nH]cc1NC(=O)c1c(Cl)cccc1Cl [AT7519, 4-(2,6-dichlorobenzamido)-N-(piperidin-4-yl)-1H-pyrazole-3-carboxamide, reference compound]	–	–	–	–	EC50 ([5]; Table 1, cytotoxicity MV411 cells): 200 nM; IC50 ([5]; defined as log(nM IC50), MV411, read-out: pIC50 (converted)): 126 nM; IC50 ([5]; growth inhibition, MV411 cells, MTS, read-out: IC50): 119 nM
COc1cc(F)ccc1-c1cc(Nc2cc(CS(C)(=N)=O)ccn2)ncc1F (racemic) [Compound 4.16, ((2-((5-fluoro-4-(4-fluoro-2-methoxyphenyl)pyridin-2-yl)amino)pyridin-4-yl)methyl)(imino)(methyl)4-sulfa-none, reference compound]	0.15	–	403 (≈ 163 µg/mL)	60	–
COc1cc(F)ccc1-c1cc(Nc2cc(CS(C)(=O)=NC(=O)CCCCCCCCCCNC(=O)CNc3cccc4c3C(=O)N(C3CCC(=O)NC3=O)C4=O)ccn2)ncc1F (stereo not shown) [Compound 4.32, 11-(2-((2-(2,6-dioxopiperidin-3-yl)-1,3-dioxoisoindolin-4-yl)amino)acetamido)-N-(((2-((5-fluoro-4-(4-fluoro-2-methoxyphenyl)pyridin-2-yl)amino)pyridin-4-yl)methyl)(methyl)(oxo)-16-sulfaneylidene)undecanamide]	0.28	120	–	140	–
COc1cc(F)ccc1-c1cc(Nc2cc(CS(C)(=O)=NC(=O)C3CCCN(Cc4cn(CC(=O)N5CCN(CCCc6cccc7c6C(=O)N(C6CCC(=O)NC6=O)C7=O)CC5)nn4)C3)ccn2)ncc1F (stereo not shown) [Compound 4.74, 1-({1-[2-(4-{3-[2-(2,6-dioxopiperidin-3-yl)-1,3-dioxo-2,3-dihydro-1H-isoindol-4-yl]propyl}piperazin-1-yl)-2-oxoethyl]-1H-1,2,3-triazol-4-yl}methyl)-N-{[(2-{[5-fluoro-4-(4-fluoro-2-methoxyphenyl)pyridin-2-yl]amino}pyridin-4-yl)methyl](methyl)oxo-λ^6-sulfanylidene}piperidine-3-carboxamide]	0.15	–	–	–	–
COc1cc(F)ccc1-c1cc(Nc2cc(CS(C)(=O)=NC(=O)CCCCc3cn(CCCOc4cccc5c4C(=O)N(C4CCC(=O)NC4=O)C5=O)nn3)ccn2)ncc1F (stereo not shown) [Compound 4.31, 5-(1-(3-((2-(2,6-dioxopiperidin-3-yl)-1,3-dioxoisoindolin-4-yl)oxy)propyl)-1H-1,2,3-triazol-4-yl)-N-(((2-((5-fluoro-4-(4-fluoro-2-methoxyphenyl)pyridin-2-yl)amino)pyridin-4-yl)methyl)(methyl)(oxo)-16-sulfaneylidene)pentanamide]	0.17	–	< 5	170	–

Continued, in another order:

logk′80 [1]	DC50 [2] [nM]	solubility at 1.5 h [4, 7] [µM]	SMILES	IC50 [3, 6] [nM]	also measured
0.20	360	3.1 (≈ 2.53 µg/mL)	COc1cc(F)ccc1-c1cc(Nc2cc(CS(C)(=O)=NC(=O)CN3CCC(COc4cccc5c4C(=O)N(C4CCC(=O)NC4=O)C5=O)CC3)ccn2)ncc1F (stereo not shown) [Compound 4.79, 2-[4-({[2-(2,6-dioxopiperidin-3-yl)-1,3-dioxo-2,3-dihydro-1H-isoindol-4-yl]oxy}methyl)piperidin-1-yl]-N-{[(2-{[5˜fluoro-4-(4-fluoro-2-methoxyphenyl)pyridin-2-yl]amino}pyridin-4-yl)methyl](methyl)oxo-26-sulfanylidene}acetamide]	190	–
0.15	–	–	COc1cc(F)ccc1-c1cc(Nc2cc(CS(C)(=O)=NC(=O)CN3CCC(N4CCC(C#Cc5ccc6c(c5)CN(C5CCC(=O)NC5=O)C6=O)CC4)CC3)ccn2)ncc1F (stereo not shown) [Compound 4.103, 2-(4-{2-[2-(2,6-dioxopiperidin-3-yl)-1-oxo-2,3-dihydro-1H-isoindol-5-yl]ethynyl}-[1,4′-bipiperidin]-1′-yl)-N-{[(2-{[5-fluoro-4-(4-fluoro-2-methoxyphenyl)pyridin-2-yl]amino}pyridin-4-yl)methyl](methyl)oxo-26-sulfanylidene}acetamide]	–	IC50 ([3]; cytotoxicity): 120 nM; Solubility [4]: 29 µM and 29.1 µM
–	930	~15 (≈ 13.8 µg/mL)	COc1cc(F)ccc1-c1cc(Nc2cc(CS(C)(=O)=NC(=O)CN3CCN(Cc4cn(C5CN(c6cccc7c6C(=O)N(C6CCC(=O)NC6=O)C7=O)C5)nn4)CC3)ccn2)ncc1F (stereo not shown) [Compound 4.50, 2-(4-((1-(1-(2-(2,6-dioxopiperidin-3-yl)-1,3-dioxoisoindolin-4-yl)azetidin-3-yl)-11H-1,2,3-triazol-4-yl)methyl)piperazin-1-yl)-N-(((2-((5-fluoro-4-(4-fluoro-2-methoxyphenyl)pyridin-2-yl)amino)pyridin-4-yl)methyl)(methyl)(oxo)-16-sulfaneylidene)acetamide]	1540	Solubility [4]: 13.9 µM (≈ 12.8 µg/mL)
–	–	51.6 (≈ 46.1 µg/mL)	COc1cc(F)ccc1-c1cc(Nc2cc(CS(C)(=O)=NC(=O)CN3CCC(N4CCN(CC#Cc5ccc6c(c5)CN(C5CCC(=O)NC5=O)C6=O)CC4)CC3)ccn2)ncc1F (stereo not shown) [Compound 4.104, 2-[4-(4-{3-[2-(2,6-dioxopiperidin-3-yl)-1-oxo-2,3-dihydro-1H-isoindol-5-yl]prop-2-yn-1-yl}piperazin-1-yl)piperidin-1-yl]-N-{[(2-{[5-fluoro-4-(4-fluoro-2-methoxyphenyl)pyridin-2-yl]amino}pyridin-4-yl)methyl](methyl)oxo-16-sulfanylidene}acetamide]	> 1000	IC50 ([3]; cytotoxicity): 1100 nM; solubility kinetic at 1.5 h [4, 7]: > 50 µM
–	170	1.8 (≈ 1.83 µg/mL)	COc1cc(F)ccc1-c1cc(Nc2cc(CS(C)(=O)=NC(=O)CN3CCC(c4cn(CC(=O)N5CCN(CC#Cc6cccc7c6C(=O)N(C6CCC(=O)NC6=O)C7=O)CC5)nn4)CC3)ccn2)ncc1F (stereo not shown) [Compound 4.61, 2-(4-(1-(2-(4-(3-(2-(2,6-dioxopiperidin-3-yl)-1,3-dioxoisoindolin-4-yl)prop-2-yn-1-yl)piperazin-1-yl)-2-oxoethyl)-1H-1,2,3-triazol-4-yl)piperidin-1-yl)-N-(((2-((5-fluoro-4-(4-fluoro-2-methoxyphenyl)pyridin-2-yl)amino)pyridin-4-yl)methyl)(methyl)(oxo)-16-sulfaneylidene)acetamide]	340	–
